Assay results reported in US20120115865A1, “New Salts of an Indole Derivative and Their Use in Medicine” (priority 2006, published 2012).
Counter-ions that a name gives are not always drawn.

Assay: Hygroscopicity by Dynamic Vapour Sorption Analysis (DVS)
Type: physicochemical
Settings: 25° C.
Protocol: Dynamic Vapour Sorption Analysis (DVS)
The studies were undertaken using Dynamic Vapour Sorption Appararatus (DVS, Surface Measurement Systems, London UK). The apparatus consists of Cahn micobalance housed inside a temperature-controled cabinet. All experiments were performed at 25° C. The DVS was used to characterize the moisture uptake (% w/w) at different relative humidities (RH). Samples (5-10 mg) were weighed directly into the DSV sample cup and exposed to different relative humidities.

With “2-Hydroxy-3-[5-(morpholin-4-ylmethyl)pyridin-2-yl]1H-indole-5-carbonitrile edisylate” the moisture uptake (relative humidity 40%) was 5.1 % w/w, the moisture uptake (relative humidity 60%) was 6.6 % w/w and the moisture uptake (relative humidity 80%) was 8.2 % w/w.
For `CCS(=O)(=O)O.N#Cc1ccc2[nH]c(O)c(-c3ccc(CN4CCOCC4)cn3)c2c1` [Esylate, 2-Hydroxy-3-[5-(morpholin-4-ylmethyl)pyridin-2-yl]1H-indole-5-carbonitrile esylate], the moisture uptake (relative humidity 40%) was 0.5 % w/w, the moisture uptake (relative humidity 60%) was 0.8 % w/w and the moisture uptake (relative humidity 80%) was 1.2 % w/w.
For `N#Cc1ccc2[nH]c(O)c(-c3ccc(CN4CCOCC4)cn3)c2c1.O=C(O)/C=C/C(=O)O` [Fumarate, 2-hydroxy-3-[5-(morpholin-4-ylmethyl)pyridin-2-yl]1H-indole-5-carbonitrile fumarate], the moisture uptake (relative humidity 40%) was 3.8 % w/w, the moisture uptake (relative humidity 60%) was 4.5 % w/w and the moisture uptake (relative humidity 80%) was 5.1 % w/w.
`N#Cc1ccc2[nH]c(O)c(-c3ccc(CN4CCOCC4)cn3)c2c1` [HCl, 2-hydroxy-3-[5-(morpholin-4-ylmethyl)pyridin-2-yl]1H-indole-5-carbonitrile, reference compound] showed a moisture uptake (relative humidity 40%) of 8.7 % w/w, a moisture uptake (relative humidity 60%) of 11.5 % w/w and a moisture uptake (relative humidity 80%) of 13.0 % w/w.
Compound `N#Cc1ccc2[nH]c(O)c(-c3ccc(CN4CCOCC4)cn3)c2c1.O=C(O)/C=C\C(=O)O` [Maleate, 2-hydroxy-3-[5-(morpholin-4-ylmethyl)pyridin-2-yl]1H-indole-5-carbonitrile maleate] has a moisture uptake (relative humidity 40%) of 1.7 % w/w, a moisture uptake (relative humidity 60%) of 2.2 % w/w and a moisture uptake (relative humidity 80%) of 2.7 % w/w.
Work on `CS(=O)(=O)O.N#Cc1ccc2[nH]c(O)c(-c3ccc(CN4CCOCC4)cn3)c2c1` [Mesylate, 2-Hydroxy-3-[5-(morpholin-4-ylmethyl)pyridin-2-yl]1H-indole-5-carbonitrile mesylate] yielded a moisture uptake (relative humidity 40%) of 0.7 % w/w, a moisture uptake (relative humidity 60%) of 1.1 % w/w and a moisture uptake (relative humidity 80%) of 1.6 % w/w.
Compound `N#Cc1ccc2[nH]c(O)c(-c3ccc(CN4CCOCC4)cn3)c2c1.O=P(O)(O)O` [Phosphate, 2-hydroxy-3-[5-(morpholin-4-ylmethyl)pyridin-2-yl]1H-indole-5-carbonitrile phosphate] has a moisture uptake (relative humidity 40%) of 4.1 % w/w, a moisture uptake (relative humidity 60%) of 6.6 % w/w and a moisture uptake (relative humidity 80%) of 10.8 % w/w.
